Experimental data taken from patent US20200404919A1, “USE OF HETEROARYL-TRIAZOLE AND HETEROARYL-TETRAZOLE COMPOUNDS AS PESTICIDES IN PLANT PROTECTION” (Bayer Aktiengesellschaft, priority 2018, published 2020).

Tests used:
Type in all cases: in vivo
[1] = tested on: Culex quinquefasciatus; assay: Culex test (CULXFAS surface treatment & contact assay); conditions: 30 minutes exposure, 24 hours after contact, read-out: efficacy (mortality in percent); for mortality at 4 mg/m2: surface concentration 4 mg/m^2, glazed tile; for mortality at 20 mg/m2: surface concentration 20 mg/m^2, glazed tile
Protocol: Culex Test (CULXFAS Surface Treatment & Contact Assay)
Solvent: Acetone+2000 ppm rapeseed oil methyl ester (RME)
(§1) In order to produce a sufficient, active ingredient containing solution it is necessary to solve the test-compound in an acetone/RME solvent mixture. This solution is pipetted onto a glazed tile and after evaporation of the acetone, adult mosquitoes of the species Culex quinquefasciatus (Brown house mosquito) are placed onto the dried surface. The exposure time is 30 minutes.
(§2) Mortality in percent (%) is determined 24 hours after contact to the treated surface. 100% mortality means that all test-insects are dead, whereas 0% means that not a single insect died.

[2] = tested on: Phaedon cochleariae; assay: Phaedon cochleariae - spray test; conditions: in Brassica rapa, foliar, 168 h, read-out: mortality in %
How it was run: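 Chinese cabbage leaf disks sprayed with compound diluted in water containing 1000 ppm emulsifier, then infested with mustard beetle larvae once dry. Mortality in % scored after 7 days (100% = all larvae killed, 0% = none).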

[3] = tested on: Musca domestica strain WHO-N; assay: Musca domestica test (MUSCDO surface treatment & contact assay); conditions: 30 minutes exposure, 24 hours after contact, read-out: efficacy (mortality in percent); for mortality at 4 mg/m2: surface concentration 4 mg/m^2, glazed tile; for mortality at 20 mg/m2: surface concentration 20 mg/m^2, glazed tile
Protocol: Musca domestica Test (MUSCDO Surface Treatment & Contact Assay)
(§3) Solvent: Aceton+2000 ppm Rapeseed oil methyl ester (RME)
as §1, with “flies” for “mosquitoes”, “Musca domestica strain WHO-N” for “Culex quinquefasciatus (Brown house mosquito)”
as §2

[4] = tested on: Nezara viridula; assay: Nezara viridula - spray test 1; conditions: in Hordeum vulgare, 96 h, read-out: mortality in %
How it was run: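 Barley plants carrying southern green stink bug larvae were sprayed with compound diluted in water with 1000 ppm emulsifier. Mortality (%) was scored after 4 days.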

[5] = tested on: Tetranychus urticae; assay: Tetranychus urticae - spray test OP-resistant; conditions: foliar, 144 h, French bean leaf disks, all instars, after 6 days
Protocol: Tetranychus urticae—Spray Test OP-Resistant
To produce a suitable preparation of active compound, 1 part by weight of active compound is mixed with the stated amount of solvents and is diluted with water, containing an emulsifier concentration of 1000 ppm, to the desired concentration. Further test concentrations are prepared by dilution with emulsifier containing water.
French bean (Phaseolus vulgaris) leaf disks infected with all instars of the two spotted spidermite (Tetranychus urticae), are sprayed with a preparation of the active ingredient of the desired concentration.
After 6 days mortality in % is determined. 100% means all spider mites have been killed and 0% means none of the spider mites have been killed.

[6] = tested on: Diabrotica balteata; assay: Diabrotica balteata - spray test; conditions: 168 h, 160 μg/well, germinated wheat seeds, larvae, after 7 days, read-out: efficacy in %
How it was run: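 Wheat seeds germinated 1 day on agar were sprayed with compound diluted in water with 1000 ppm emulsifier, then infested with 10-20 Diabrotica balteata larvae. Efficacy in % scored after 7 days: 100% = seedlings grown as untreated, uninfected control; 0% = no seedlings grown.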

[7] = tested on: Nilaparvata lugens; assay: Nilaparvata lugens - spray test 1; conditions: in Oryza sativa, 96 h, read-out: mortality in %, 500 g/ha, rice plants, after 4 days
How it was run: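 Rice plants (Oryza sativa) were sprayed with the compound preparation in water containing 1000 ppm emulsifier, then infested with brown planthoppers. Percent mortality scored after 4 days (100% = all killed, 0% = none).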

[8] = tested on: Blattella germanica strain PAULINIA; assay: Blattella germanica test (BLTTGE surface treatment & contact assay); conditions: 30 minutes exposure, 24 hours after contact, read-out: efficacy (mortality in percent); for mortality at 4 mg/m2: surface concentration 4 mg/m^2, glazed tile; for mortality at 20 mg/m2: surface concentration 20 mg/m^2, glazed tile
Protocol: Blattella germanica Test (BLTTGE Surface Treatment & Contact Assay)
as §3
as §1, with “animals” for “mosquitoes”, “Blattella germanica strain PAULINIA” for “Culex quinquefasciatus (Brown house mosquito)”
as §2

[9] = tested on: Aphis gossypii; assay: Aphis gossypii - oral test; conditions: 120 h, read-out: mortality in %
How it was run: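 Mixed-population cotton aphids feed through parafilm on compound (acetone stock diluted in water) mixed with IPL41 insect medium containing sugar. Mortality (%) scored after 5 days.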

[10] = tested on: Myzus persicae; assay: Myzus persicae - oral test; conditions: 120 h, read-out: mortality in %
How it was run: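 Mixed-population green peach aphids fed through parafilm on compound diluted in water plus IPL41 insect medium (33%+15% sugar). Mortality (%) scored after 5 days, 100% meaning all aphids killed.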

[11] = tested on: Spodoptera frugiperda; assay: Spodoptera frugiperda - spray test; conditions: in Zea mays, 168 h, read-out: mortality in %
How it was run: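 Caterpillars are placed on sprayed, dried maize leaf sections. Sprays contain compound diluted in water with emulsifier at 1000 ppm; mortality in % is determined 7 days later.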

[12] = tested on: Aedes aegypti strain MONHEIM; assay: Aedes test (AEDSAE surface treatment & contact assay); conditions: 30 minutes exposure, 24 hours after contact, read-out: efficacy (mortality in percent); for mortality at 4 mg/m2: surface concentration 4 mg/m^2, glazed tile; for mortality at 20 mg/m2: surface concentration 20 mg/m^2, glazed tile
Protocol: Aedes Test (AEDSAE Surface Treatment & Contact Assay)
Solvent: Aceton+2000 ppm rapeseed oil methyl ester (RME)
as §1, with “Aedes aegypti strain MONHEIM” for “Culex quinquefasciatus (Brown house mosquito)”
as §2

[13] = tested on: Meloidogyne incognita; assay: Meloidogyne incognita - test; conditions: 336 h, salad seedlings in sand, after 14 days, read-out: nematicidal activity (percentage of gall formation)
Protocol: Meloidogyne incognita—Test
Solvent: 125.0 parts by weight of acetone
To produce a suitable preparation of active compound, 1 part by weight of active compound is mixed with the stated amount of solvent, and the concentrate is diluted with water to the desired concentration.
Vessels are filled with sand, a solution of the active ingredient, a suspension containing eggs and larvae of the southern root-knot nematode (Meloidogyne incognita) and salad seeds. The salad seeds germinate and the seedlings grow. Galls develop in the roots.
After 14 days the nematicidal activity is determined on the basis of the percentage of gall formation. 100% means no galls were found and 0% means the number of galls found on the roots of the treated plants was equal to that in untreated control plants.

Compound	mortality at 4 mg/m2 [1] [%]	mortality at 20 mg/m2 [1] [%]	mortality at 500 g/ha [2] [%]	mortality at 4 mg/m2 [3] [%]	mortality at 20 mg/m2 [3] [%]	mortality at 500 g/ha [4] [%]	mortality at 500 g/ha [5] [%]	pest or weed control at 160 µg/disc, 160 µg/well [6] [%]	mortality at 500 g/ha [7] [%]	mortality at 4 mg/m2 [8] [%]	mortality at 20 mg/m2 [8] [%]	mortality at 100 ppm [9] [%]	mortality at 20 ppm [10] [%]	mortality at 500 g/ha [11] [%]	mortality at 4 mg/m2 [12] [%]	mortality at 20 mg/m2 [12] [%]	pest or weed control at 20 ppm [13] [%]
CC(c1ncnn1-c1ncccn1)N(CC1CC1)C(=O)c1cc(Cl)cc(OC(F)(F)F)c1 (stereo not shown) [Compound I-37, 3-chloro-N-(cyclopropylmethyl)-N-[1-(2-pyrimidin-2-yl-1,2,4-triazol-3-yl)ethyl]-5-(trifluoromethoxy)benzamide]	80 to 100	80 to 100	100	80 to 100	80 to 100	100	90	100	100	80 to 100	80 to 100	100	100	100	80 to 100	80 to 100	–
C#CCN(C(=O)c1cc(Cl)cc(C(F)(F)F)c1)C(C)c1ncnn1-c1ncccn1 (stereo not shown) [Compound I-41, 3-chloro-N-prop-2-ynyl-N-[1-(2-pyrimidin-2-yl-1,2,4-triazol-3-yl)ethyl]-5-(trifluoromethyl)benzamide]	–	–	100	–	–	100	90	100	100	–	–	100	100	100	–	–	–
CC(c1ncnn1-c1ncccn1)N(CC1CC1)C(=O)c1cc(C(F)(F)F)cc(C(F)(F)F)c1 (stereo not shown) [Compound I-48, N-(cyclopropylmethyl)-N-[1-(2-pyrimidin-2-yl-1,2,4-triazol-3-yl)ethyl]-3,5-bis(trifluoromethyl)benzamide]	80 to 100	80 to 100	100	80 to 100	80 to 100	100	–	100	100	80 to 100	80 to 100	100	100	100	80 to 100	80 to 100	100
CC(c1ncnn1-c1ncc(F)cn1)N(CC1CC1)C(=O)c1cc(Cl)cc(C(F)(F)F)c1 (stereo not shown) [Compound I-81, 3-chloro-N-(cyclopropylmethyl)-N-[1-[2-(5-fluoropyrimidin-2-yl)-1,2,4-triazol-3-yl]ethyl]-5-(trifluoromethyl)benzamide]	80 to 100	80 to 100	100	80 to 100	80 to 100	100	80	100	100	80 to 100	80 to 100	100	100	100	80 to 100	80 to 100	–
CC(c1ncnn1-c1nccc(C(F)(F)F)n1)N(CC1CC1)C(=O)c1cc(Cl)cc(C(F)(F)F)c1 (stereo not shown) [Compound I-82]	–	–	100	–	–	100	80	100	100	–	–	100	100	100	–	–	100
CC(c1ncnn1-c1ncccn1)N(CC1CC1)C(=O)c1cccc(SC(F)(F)F)c1 (stereo not shown) [Compound I-83]	–	–	100	–	–	100	100	100	100	–	–	100	100	83	–	–	–
CC(c1ncnn1-c1ncccn1)N(CC1CC1)C(=O)c1cc(Cl)cc(Cl)c1 (stereo not shown) [Compound I-95]	–	–	100	–	–	100	–	100	90	–	–	100	100	100	–	–	90
CCN(C(=O)c1cc(Cl)cc(C(F)(F)F)c1)C(C)c1ncnn1-c1ncccn1 (stereo not shown) [Compound I-97, 3-chloro-N-ethyl-N-[1-(2-pyrimidin-2-yl-1,2,4-triazol-3-yl)ethyl]-5-(trifluoromethyl)benzamide]	–	–	100	–	–	100	80	100	100	–	–	100	100	100	–	–	–
CC(c1ncnn1-c1ncccn1)N(CC1CC1)C(=O)c1cc(Cl)cc(SC(F)(F)F)c1 (stereo not shown) [Compound I-107, 3-chloro-N-(cyclopropylmethyl)-N-[1-(2-pyrimidin-2-yl-1,2,4-triazol-3-yl)ethyl]-5-(trifluoromethylsulfanyl)benzamide]	–	–	100	–	–	100	–	100	100	–	–	100	100	100	–	–	90
CC(c1ncnn1-c1ccncn1)N(CC1CC1)C(=O)c1cc(Cl)cc(C(F)(F)F)c1 (stereo not shown) [Compound I-110]	–	–	100	–	–	100	95	100	100	–	–	100	100	100	–	–	–
CC(c1ncnn1-c1cncnc1)N(CC1CC1)C(=O)c1cc(Cl)cc(C(F)(F)F)c1 (stereo not shown) [Compound I-112]	–	–	–	–	–	–	90	100	–	–	–	–	–	–	–	–	–
C[C@H](NC(=O)c1cc(Cl)cc(C(F)(F)F)c1)c1ncnn1-c1ncccc1Cl [Compound I-116]	–	–	100	–	–	100	95	100	100	–	–	100	90	100	–	–	–
